According to PMC12615753, “Glutathione as a taste modulator: molecular mechanisms of interaction with umami and sweet taste receptors” (Food Chemistry: Molecular Sciences, 2025):

Columns and labels:
hTAS1R2/rTAS1R3(Mut2) = biological target: T1, hTAS1R2/rTAS1R3(Mut2) (UniProt Q8TE23+Q923K1, L72W/P67S/S282A/Y281H); experiment: Calcium assay, mutated rTAS1R3 co-expressed with hTAS1R2; assay type: cell-based, human, rat
T1 construct: The cDNA coding region of rTAS1R3 was synthesized with optimized-codon usage for human expression; expressed in transfected cells

hTAS1R1/rTAS1R3 = biological target: T2, hTAS1R1/rTAS1R3 (UniProt Q7RTX1+Q923K1); experiment: Calcium assay (GCaMP6s, Gα15i2) in transiently transfected HEK293T/17 cells; assay type: cell-based, human, rat
T2 construct: UniProtKB number Q7RTX1–1); The cDNA coding region of rTAS1R3 was synthesized with optimized-codon usage for human expression; expressed in transfected cells; host or cells: HEK293T/17 (ATCC CRL-11268)
T2 sequence (Q7RTX1 21-841): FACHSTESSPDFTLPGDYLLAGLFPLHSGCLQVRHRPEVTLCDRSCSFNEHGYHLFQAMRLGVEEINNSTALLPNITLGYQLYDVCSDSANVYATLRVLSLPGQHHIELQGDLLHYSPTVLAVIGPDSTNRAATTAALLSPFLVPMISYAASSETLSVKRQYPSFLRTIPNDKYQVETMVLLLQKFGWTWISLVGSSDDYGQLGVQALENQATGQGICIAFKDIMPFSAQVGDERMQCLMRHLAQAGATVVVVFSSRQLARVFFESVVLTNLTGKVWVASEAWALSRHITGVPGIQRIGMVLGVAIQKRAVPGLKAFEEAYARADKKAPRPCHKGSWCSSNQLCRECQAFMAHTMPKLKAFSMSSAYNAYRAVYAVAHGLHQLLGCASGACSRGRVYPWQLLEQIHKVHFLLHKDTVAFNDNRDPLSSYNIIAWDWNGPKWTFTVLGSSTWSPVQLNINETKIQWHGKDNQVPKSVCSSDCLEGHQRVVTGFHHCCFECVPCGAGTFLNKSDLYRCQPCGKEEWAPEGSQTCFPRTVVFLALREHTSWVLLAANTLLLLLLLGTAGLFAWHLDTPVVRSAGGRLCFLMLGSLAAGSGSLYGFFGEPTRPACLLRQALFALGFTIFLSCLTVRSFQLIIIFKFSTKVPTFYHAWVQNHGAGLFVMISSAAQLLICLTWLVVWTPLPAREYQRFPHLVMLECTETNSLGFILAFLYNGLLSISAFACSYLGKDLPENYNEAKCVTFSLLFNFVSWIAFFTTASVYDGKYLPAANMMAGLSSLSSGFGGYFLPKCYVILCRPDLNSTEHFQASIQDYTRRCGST
T2 sequence (Q923K1 21-858): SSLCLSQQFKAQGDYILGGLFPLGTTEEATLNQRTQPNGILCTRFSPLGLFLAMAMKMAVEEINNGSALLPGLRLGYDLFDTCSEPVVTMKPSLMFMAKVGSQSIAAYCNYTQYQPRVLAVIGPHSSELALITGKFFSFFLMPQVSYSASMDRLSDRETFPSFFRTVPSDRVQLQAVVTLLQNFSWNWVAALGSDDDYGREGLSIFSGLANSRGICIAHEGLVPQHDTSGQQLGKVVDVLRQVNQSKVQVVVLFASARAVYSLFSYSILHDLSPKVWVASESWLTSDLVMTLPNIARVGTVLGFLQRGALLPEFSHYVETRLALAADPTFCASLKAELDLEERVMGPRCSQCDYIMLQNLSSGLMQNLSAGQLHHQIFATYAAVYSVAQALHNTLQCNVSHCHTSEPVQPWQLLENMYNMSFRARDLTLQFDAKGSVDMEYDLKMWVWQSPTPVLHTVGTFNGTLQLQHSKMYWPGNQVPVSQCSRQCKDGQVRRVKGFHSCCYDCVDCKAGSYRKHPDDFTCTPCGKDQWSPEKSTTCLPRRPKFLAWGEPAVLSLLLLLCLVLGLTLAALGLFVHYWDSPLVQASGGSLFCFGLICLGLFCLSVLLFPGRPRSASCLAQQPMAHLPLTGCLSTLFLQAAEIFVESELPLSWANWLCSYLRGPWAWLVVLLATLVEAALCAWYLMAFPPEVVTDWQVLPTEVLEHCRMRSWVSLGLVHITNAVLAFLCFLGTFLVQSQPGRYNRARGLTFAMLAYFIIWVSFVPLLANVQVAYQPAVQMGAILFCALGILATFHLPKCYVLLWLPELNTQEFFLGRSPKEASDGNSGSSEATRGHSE
Protocol: To this end, hTAS1R1/rTAS1R3 and the chimeric G protein Gα15i2 were transiently expressed in HEK293T cells. Cellular responses were assessed via calcium imaging using a fluorescent protein calcium biosensor (GCaMP6s) and compared with those of mock-transfected cells.

T1 sequence (Q8TE23 20-839): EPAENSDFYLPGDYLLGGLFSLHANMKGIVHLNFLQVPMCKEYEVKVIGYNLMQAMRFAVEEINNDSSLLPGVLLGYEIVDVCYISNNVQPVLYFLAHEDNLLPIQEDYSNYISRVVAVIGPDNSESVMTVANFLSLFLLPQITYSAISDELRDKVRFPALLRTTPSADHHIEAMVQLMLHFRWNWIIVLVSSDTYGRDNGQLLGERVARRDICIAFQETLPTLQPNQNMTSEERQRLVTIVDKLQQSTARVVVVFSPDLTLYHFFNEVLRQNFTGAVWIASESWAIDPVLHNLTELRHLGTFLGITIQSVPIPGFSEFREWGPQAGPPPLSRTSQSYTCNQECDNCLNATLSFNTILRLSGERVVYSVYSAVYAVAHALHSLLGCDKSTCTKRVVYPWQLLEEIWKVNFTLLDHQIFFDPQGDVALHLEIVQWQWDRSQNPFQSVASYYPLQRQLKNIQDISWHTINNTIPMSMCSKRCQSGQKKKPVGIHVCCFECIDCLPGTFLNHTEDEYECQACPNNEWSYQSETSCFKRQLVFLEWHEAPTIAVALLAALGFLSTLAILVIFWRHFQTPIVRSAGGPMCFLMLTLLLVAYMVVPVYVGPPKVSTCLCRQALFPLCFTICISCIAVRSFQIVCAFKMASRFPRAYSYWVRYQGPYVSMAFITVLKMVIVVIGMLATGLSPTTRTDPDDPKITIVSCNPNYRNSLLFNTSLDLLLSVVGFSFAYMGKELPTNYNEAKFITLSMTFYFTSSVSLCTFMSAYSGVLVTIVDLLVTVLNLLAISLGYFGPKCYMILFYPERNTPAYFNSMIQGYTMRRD
T1 sequence (Q923K1 21-858 P67S/L72W/Y281H/S282A): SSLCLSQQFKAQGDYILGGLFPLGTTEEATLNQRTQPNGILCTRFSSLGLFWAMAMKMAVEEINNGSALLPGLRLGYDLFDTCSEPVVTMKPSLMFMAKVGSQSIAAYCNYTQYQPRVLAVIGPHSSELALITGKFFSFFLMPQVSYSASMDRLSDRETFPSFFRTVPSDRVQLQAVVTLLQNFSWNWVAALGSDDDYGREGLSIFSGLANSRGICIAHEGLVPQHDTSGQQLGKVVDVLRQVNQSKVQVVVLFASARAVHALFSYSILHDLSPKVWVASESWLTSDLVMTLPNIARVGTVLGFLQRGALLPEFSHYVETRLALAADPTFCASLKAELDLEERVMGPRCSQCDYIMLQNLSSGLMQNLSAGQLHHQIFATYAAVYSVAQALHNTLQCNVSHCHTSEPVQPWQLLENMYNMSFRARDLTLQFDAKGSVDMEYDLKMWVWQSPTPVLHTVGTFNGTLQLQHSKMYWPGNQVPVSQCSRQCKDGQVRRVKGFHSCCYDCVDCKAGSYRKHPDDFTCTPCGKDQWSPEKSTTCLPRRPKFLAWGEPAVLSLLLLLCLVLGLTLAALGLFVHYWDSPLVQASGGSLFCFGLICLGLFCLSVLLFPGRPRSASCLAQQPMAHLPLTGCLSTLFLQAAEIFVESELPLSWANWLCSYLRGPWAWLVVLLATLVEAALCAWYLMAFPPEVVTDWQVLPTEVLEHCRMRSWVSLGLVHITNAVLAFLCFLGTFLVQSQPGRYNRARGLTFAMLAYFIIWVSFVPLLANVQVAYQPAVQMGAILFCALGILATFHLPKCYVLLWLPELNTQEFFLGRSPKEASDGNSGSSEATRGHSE

Row | EC50 (hTAS1R2/rTAS1R3(Mut2); sucralose alone, Fig. 4A) [µM] | EC50 (hTAS1R1/rTAS1R3; WT, S807 alone, Fig. 4E) [µM] | SMILES | EC50 (hTAS1R1/rTAS1R3; agonist alone, Fig. 1, Fig. S2) [µM] | max ∆F/F0 (hTAS1R1/rTAS1R3; agonist alone, Fig. 1, Fig. S2) | effect of 10 mM GSH on the response to sucralose (hTAS1R2/rTAS1R3(Mut2)) | maximal response, fold lower than that elicited by L-Glu (hTAS1R1/rTAS1R3) [fold] | EC50 (hTAS1R1/rTAS1R3; GSH alone, Fig. 6C) [µM] | EC50 (hTAS1R1/rTAS1R3; GSH alone, Fig. 6D) [µM] | EC50 (hTAS1R1/rTAS1R3; GSH alone, Fig. 6E) [µM] | EC50 (hTAS1R1/rTAS1R3; WT, GSH) [µM] | Max ∆F/F0 (hTAS1R1/rTAS1R3; WT, GSH) | R1 = mutant EC50/WT EC50 (hTAS1R1/rTAS1R3; WT, GSH) | EC50 (hTAS1R1/rTAS1R3; WT, GSH alone, Fig. 4C) [µM] | effect on the dose-response curves to L-Glu (hTAS1R1/rTAS1R3; in the presence of 3 mM and 10 mM GSH, Fig. 6F)
1 | 493 ± 114 |  | OC[C@H]1O[C@H](O[C@]2(CCl)O[C@H](CCl)[C@@H](O)[C@@H]2O)[C@H](O)[C@@H](O)[C@H]1Cl [sucralose, reference compound] |  |  |  |  |  |  |  |  |  |  |  | 
2 |  | 1.25 ± 0.12 | CCCC(CCC)NC(=O)c1ccc2c(c1)OCO2 [S807, N-(heptan-4-yl)benzo[d][1,3]dioxole-5-carboxamide, reference compound] | 1.02 ± 0.08 | 1.87 ± 0.03 |  |  |  |  |  |  |  |  |  | 
3 |  |  | N[C@@H](CCC(=O)N[C@@H](CS)C(=O)NCC(=O)O)C(=O)O [GSH, γ-L-glutamyl-L-cysteinyl-glycine] | 2150 ± 87 | 0.46 ± 0.01 | not increased | 2.2 | 3430 ± 98 | 4360 ± 308 | 3210 ± 138 | 2520 ± 238 | 0.23 ± 0.01 | 1.0 | 4250 ± 500 | a leftward shift and a decrease in the EC50 values
